ChEMBL document CHEMBL5108019, “Discovery of a novel Pleuromutilin derivative as anti-IPF lead compound via high-throughput assay” (Eur J Med Chem, 2022)
Converted amounts (≈) assume the structure as drawn. The source made the active and inactive calls. No cut-off for these calls is given here.

What was measured:
[1] = system: Mus musculus; experiment: Antifibrotic activity against BLM-induced pulmonary fibrosis in C57BL/6 mouse model assessed as improvement in pulmonary alveolar structure damage at 100 mg/kg, po administered once daily starting from day 7 post BLM treatment and measured on day 14 by H and E staining based analysis; format: functional, organism-based; conditions: time 14.0 day
[2] = system: Mus musculus; experiment: Antifibrotic activity against BLM-induced pulmonary fibrosis in C57BL/6 mouse model assessed as reduction in fibrosis region at 100 mg/kg, po administered once daily starting from day 7 post BLM treatment and measured on day 14 by hematoxylin-eosin and Masson trichrome staining based analysis relative to control; format: functional, organism-based; conditions: time 14.0 day
[3] = molecular target: Transforming growth factor beta-1 proprotein/Mothers against decapentaplegic homolog 3 (Mus musculus) (UniProt P04202+Q8BUN5); experiment: Inhibition of TGF-beta1/Smad3 signalling in TGF-beta1 treated mouse NIH3T3 cells transfected with (CAGA)12-Lux reporter gene assessed as suppressive ratio at 10 uM incubated for 18 hrs by luciferase based analysis relative to control; format: cell-based; design: scale not given: the % may be the effect or the level left
[4] = system: Staphylococcus aureus; experiment: Antibacterial activity against Staphylococcus aureus assessed as bacterial growth inhibition incubated for 24 hrs; format: functional
[5] = system: Bacillus subtilis; experiment: Antibacterial activity against Bacillus subtilis assessed as bacterial growth inhibition incubated for 24 hrs; format: functional
[6] = system: Escherichia coli; experiment: Antibacterial activity against Escherichia coli assessed as bacterial growth inhibition incubated for 24 hrs; format: functional

Chain of Transforming growth factor beta-1 proprotein/Mothers against decapentaplegic homolog 3 (Mus musculus) (P04202 279-390 limits assumed): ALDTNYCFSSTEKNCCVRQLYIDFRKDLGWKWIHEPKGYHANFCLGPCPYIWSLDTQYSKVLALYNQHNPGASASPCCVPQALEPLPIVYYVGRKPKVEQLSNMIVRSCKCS
Chain of Transforming growth factor beta-1 proprotein/Mothers against decapentaplegic homolog 3 (Mus musculus) (Q8BUN5 2-425 partner limits assumed): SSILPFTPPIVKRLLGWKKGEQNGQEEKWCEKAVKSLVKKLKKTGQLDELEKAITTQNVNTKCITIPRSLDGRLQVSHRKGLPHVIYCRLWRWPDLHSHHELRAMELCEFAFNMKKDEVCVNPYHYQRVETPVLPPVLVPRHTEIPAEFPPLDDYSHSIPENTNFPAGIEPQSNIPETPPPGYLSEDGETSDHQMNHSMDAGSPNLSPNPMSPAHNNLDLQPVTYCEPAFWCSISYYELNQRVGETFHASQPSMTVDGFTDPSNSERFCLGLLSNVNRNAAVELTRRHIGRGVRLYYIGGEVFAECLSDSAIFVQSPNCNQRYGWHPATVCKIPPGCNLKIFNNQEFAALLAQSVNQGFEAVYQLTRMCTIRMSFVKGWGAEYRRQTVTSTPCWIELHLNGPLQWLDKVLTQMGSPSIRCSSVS

| Compound | Activity [3] [%] | also measured |
| --- | --- | --- |
| Cc1ccc(=O)n(-c2ccccc2)c1 |  | Activity [1]: Active; Activity [2]: Active |
| C=C[C@]1(C)C[C@@H](O)[C@]2(C)[C@H](C)CC[C@]3(C/C(=C\c4cccc(C)c4)C(=O)[C@H]32)[C@@H](C)[C@@H]1O | 0.99 |  |
| C=C[C@]1(C)C[C@@H](O)[C@]2(C)[C@H](C)CC[C@]3(C/C(=C\c4ccc5ccccc5c4)C(=O)[C@H]32)[C@@H](C)[C@@H]1O | 26.5 |  |
| C=C[C@]1(C)C[C@@H](O)[C@]2(C)[C@H](C)CC[C@]3(C/C(=C\c4c(C)cc(C)cc4C)C(=O)[C@H]32)[C@@H](C)[C@@H]1O | 42.5 |  |
| C=C[C@]1(C)C[C@@H](O)[C@]2(C)[C@H](C)CC[C@]3(C/C(=C\c4ccco4)C(=O)[C@H]32)[C@@H](C)[C@@H]1O | 31 |  |
| C=C[C@]1(C)C[C@@H](O)[C@]2(C)[C@H](C)CC[C@]3(C/C(=C\c4ccc(Cl)cc4)C(=O)[C@H]32)[C@@H](C)[C@@H]1O | 48.9 |  |
| C=C[C@]1(C)C[C@@H](O)[C@]2(C)[C@H](C)CC[C@]3(C/C(=C\C(C)(C)C)C(=O)[C@H]32)[C@@H](C)[C@@H]1O | 6.58 |  |
| C=C[C@]1(C)C[C@@H](O)[C@]2(C)[C@H](C)CC[C@]3(C/C(=C\c4ncccc4F)C(=O)[C@H]32)[C@@H](C)[C@@H]1O | 13.5 |  |
| C=C[C@]1(C)C[C@@H](O)[C@]2(C)[C@H](C)CC[C@]3(C/C(=C\CCCC)C(=O)[C@H]32)[C@@H](C)[C@@H]1O | 16.9 |  |
| C=C[C@]1(C)C[C@@H](O)[C@]2(C)[C@H](C)CC[C@]3(C/C(=C\c4ccc(C(=O)O)cc4)C(=O)[C@H]32)[C@@H](C)[C@@H]1O | 41.4 | MIC [4]: > 1000 µg/mL; MIC [5]: > 1000 µg/mL; MIC [6]: > 1000 µg/mL |
| C=C[C@]1(C)C[C@@H](OC(=O)CO)[C@]2(C)[C@H](C)CC[C@]3(CCC(=O)[C@H]32)[C@@H](C)[C@@H]1O [PLEUROMULIN] |  | MIC [4]: 5 µg/mL (≈ 13.2 µM); MIC [5]: 100 µg/mL (≈ 264 µM); MIC [6]: 10 µg/mL (≈ 26.4 µM) |
| C=C[C@]1(C)C[C@@H](O)[C@]2(C)[C@H](C)CC[C@]3(C/C(=C\c4cccc(C(=O)O)c4)C(=O)[C@H]32)[C@@H](C)[C@@H]1O | -0.41 |  |
| C=C[C@]1(C)C[C@@H](O)[C@]2(C)[C@H](C)CC[C@]3(C/C(=C\c4cccc(C(=O)NC5CCCCC5)c4)C(=O)[C@H]32)[C@@H](C)[C@@H]1O | -3.36 |  |
| C=C[C@]1(C)C[C@@H](O)[C@]2(C)[C@H](C)CC[C@]3(C/C(=C\c4ccccc4)C(=O)[C@H]32)[C@@H](C)[C@@H]1O | 15.2 |  |
| C=C[C@]1(C)C[C@@H](O)[C@]2(C)[C@H](C)CC[C@]3(C/C(=C\c4ccc(C(=O)Nc5ccccc5)cc4)C(=O)[C@H]32)[C@@H](C)[C@@H]1O | -27.7 |  |
| C=C[C@]1(C)C[C@@H](O)[C@]2(C)[C@H](C)CC[C@]3(C/C(=C\c4cccnc4)C(=O)[C@H]32)[C@@H](C)[C@@H]1O | 0.29 |  |
| NC(=O)c1ccc(-c2nc(-c3ccccn3)c(-c3ccc4c(c3)OCO4)[nH]2)cc1 | 98.9 |  |
| C=C[C@]1(C)C[C@@H](O)[C@]2(C)[C@H](C)CC[C@]3(C/C(=C\C4CCCCC4)C(=O)[C@H]32)[C@@H](C)[C@@H]1O | 32.4 |  |
| C=C[C@]1(C)C[C@@H](O)[C@]2(C)[C@H](C)CC[C@]3(C/C(=C\c4ccccc4N4CCOCC4)C(=O)[C@H]32)[C@@H](C)[C@@H]1O | 20.6 |  |

| Compound | Activity [3] [%] | also measured |
| --- | --- | --- |
| C=C[C@]1(C)C[C@@H](O)[C@]2(C)[C@H](C)CC[C@]3(C/C(=C\c4ccc(C(=O)N(C)C)cc4)C(=O)[C@H]32)[C@@H](C)[C@@H]1O | -20.3 |  |
| C=C[C@]1(C)C[C@@H](O)[C@]2(C)[C@H](C)CC[C@]3(C/C(=C\C=C\c4ccccc4)C(=O)[C@H]32)[C@@H](C)[C@@H]1O | 34 |  |
| C=C[C@]1(C)C[C@@H](O)[C@]2(C)[C@H](C)CC[C@]3(C/C(=C\c4cccc(C(=O)N5CCN(C)CC5)c4)C(=O)[C@H]32)[C@@H](C)[C@@H]1O | 7.27 |  |
| C=C[C@]1(C)C[C@@H](O)[C@]2(C)[C@H](C)CC[C@]3(C/C(=C\c4ccc(C)cc4)C(=O)[C@H]32)[C@@H](C)[C@@H]1O | 32.8 |  |
| C=C[C@]1(C)C[C@@H](O)[C@]2(C)[C@H](C)CC[C@]3(C/C(=C\c4ccc(C(=O)N5CCCCC5)cc4)C(=O)[C@H]32)[C@@H](C)[C@@H]1O | -16.7 |  |
| C=C[C@]1(C)C[C@@H](O)[C@]2(C)[C@H](C)CC[C@]3(C/C(=C\CC(C)(C)C)C(=O)[C@H]32)[C@@H](C)[C@@H]1O | 18.5 |  |
| C=C[C@]1(C)C[C@@H](O)[C@]2(C)[C@H](C)CC[C@]3(C/C(=C\c4ccc(F)cc4)C(=O)[C@H]32)[C@@H](C)[C@@H]1O | 35.3 |  |
| C=C[C@]1(C)C[C@@H](O)[C@]2(C)[C@H](C)CC[C@]3(C/C(=C\c4ccc(SC)cc4)C(=O)[C@H]32)[C@@H](C)[C@@H]1O | 46 |  |
| C=C[C@]1(C)C[C@@H](O)[C@]2(C)[C@H](C)CC[C@]3(C/C(=C\c4ccc(C(=O)N5CCN(C)CC5)cc4)C(=O)[C@H]32)[C@@H](C)[C@@H]1O | 40.3 | MIC [4]: > 1000 µg/mL; MIC [5]: > 1000 µg/mL; MIC [6]: > 1000 µg/mL |
| C=C[C@]1(C)C[C@@H](O)[C@]2(C)[C@H](C)CC[C@]3(C/C(=C\c4ccc(C(=O)N5CCOCC5)cc4)C(=O)[C@H]32)[C@@H](C)[C@@H]1O | -19.9 |  |
| C=C[C@]1(C)C[C@@H](O)[C@]2(C)[C@H](C)CC[C@]3(C/C(=C\C4CC4)C(=O)[C@H]32)[C@@H](C)[C@@H]1O | -10.8 |  |
| C=C[C@]1(C)C[C@@H](O)[C@]2(C)[C@H](C)CC[C@]3(C/C(=C\C4CCCC4)C(=O)[C@H]32)[C@@H](C)[C@@H]1O | 30.6 |  |
| C=C[C@]1(C)C[C@@H](O)[C@]2(C)[C@H](C)CC[C@]3(C/C(=C\CCC)C(=O)[C@H]32)[C@@H](C)[C@@H]1O | 0.45 |  |
| C=C[C@]1(C)C[C@@H](O)[C@]2(C)[C@H](C)CC[C@]3(C/C(=C\c4ccc(C(F)(F)F)cc4)C(=O)[C@H]32)[C@@H](C)[C@@H]1O | 35.5 |  |
| C=C[C@]1(C)C[C@@H](O)[C@]2(C)[C@H](C)CC[C@]3(C/C(=C\c4ccccc4C)C(=O)[C@H]32)[C@@H](C)[C@@H]1O | 38.8 |  |
| C=C[C@]1(C)C[C@@H](O)[C@]2(C)[C@H](C)CC[C@]3(C/C(=C\c4ccc(C(C)(C)C)cc4)C(=O)[C@H]32)[C@@H](C)[C@@H]1O | 13.3 |  |
| C=C[C@]1(C)C[C@@H](O)[C@]2(C)[C@H](C)CC[C@]3(C/C(=C\c4ccc(OC)cc4)C(=O)[C@H]32)[C@@H](C)[C@@H]1O | 21 |  |
| C=C[C@]1(C)C[C@@H](O)[C@]2(C)[C@H](C)CC[C@]3(C/C(=C\c4ccc(C(=O)NC5CCN(C)CC5)cc4)C(=O)[C@H]32)[C@@H](C)[C@@H]1O | -9.93 |  |
